Results: PMC7181201, “Dual P-Glycoprotein and CA XII Inhibitors: A New Strategy to Reverse the P-gp Mediated Multidrug Resistance (MDR) in Cancer Cells” (Molecules, 2020)
Where “and” joins values, the source holds several entries; their conditions need not be identical. Equal entries are not always repeated.

What was measured:
hCA I = biological target: T1, hCA I (Homo sapiens, UniProt P00915); assay: Stopped-flow CO2 hydrase assay, hCA I; type: biochemical; conditions: mean from 3 assays
T1 construct: made in house
Method: (§1) An SX.18MV-R Applied Photophysics (Oxford, UK) stopped-flow instrument was used to assay the catalytic/inhibition of various CA isozymes. […] Saturated CO2 solutions in water at 25 °C were used as a substrate. Stock solutions of inhibitors were prepared at a concentration of 10 μM (in DMSO-water 1:1, v/v) and dilutions up to 0.01 nM done with the assay buffer mentioned above. […] Inhibitor and enzyme solutions were preincubated together for 10 min at room temperature prior to the assay, in order to allow for the formation of the E–I complex. […] The inhibition constants were obtained by non-linear least-squares methods using the Cheng–Prusoff equation, as reported earlier, and represent the mean from at least three different determinations. All CA isozymes used here were recombinant proteins obtained as reported earlier by our group.

P-gp [1] = biological target: T2, P-gp (Homo sapiens, UniProt P08183); assay: Rhodamine-123 uptake test on K562/DOX cells (flow cytometry); type: cell-based
T2 construct: doxorubicin resistant K562/DOX cell line overexpresses almost exclusively the transporter membrane protein P-gp; endogenous in cells; host or cells: K562/DOX (doxorubicin-selected human erythroleukemia cells)
Method: The results were expressed as the FR (fluorescence ratio), which is the ratio between the average fluorescence intensity of rhodamine in the presence and in the absence of modulators. Value 1 was attributed to the average fluorescence intensity of the samples exposed only to rhodamine.
(§2) An aliquot of cells (control) was incubated with the fluorochrome in the absence of inhibitors.
(§3) At the end of the uptake, cells were sedimented, washed twice in ice-cold PBS, placed in PBS on ice, and kept in the dark until flow cytometric analysis.
(§4) The histograms were generated by program GraphPad Prism 5 (GraphPad Prism software, Inc., San Diego, CA, USA); the data were obtained from the ratio between the average fluorescence intensity of the samples preincubated with the compounds under study and subsequently exposed to rhodamine, and the fluorescence of the sample exposed only to the rhodamine.

hCA IX = biological target: T3, hCA IX (Homo sapiens, UniProt Q16790); assay: Stopped-flow CO2 hydrase assay, hCA IX; type: biochemical; conditions: stopped flow, mean from 3 assays
T3 construct: made in house
Method: as §1

hCA II = biological target: T4, hCA II (Homo sapiens, UniProt P00918); assay: Stopped-flow CO2 hydrase assay, hCA II; type: biochemical; conditions: stopped flow, mean from 3 assays
T4 construct: made in house
Method: as §1

hCA XII = biological target: T5, hCA XII (Homo sapiens, UniProt O43570); assay: Stopped-flow CO2 hydrase assay, hCA XII; type: biochemical; conditions: stopped flow, mean from 3 assays
T5 construct: made in house
Method: as §1

P-gp [2] = biological target: T2, P-gp; assay: Rhodamine-123 uptake test on LoVo/DOX cells (flow cytometry); type: cell-based
Method: The selected compounds were preliminary studied at 3, 10 and 30 µM concentrations by the MTT (3-(4,5-dimethylthiazolyl-2)-2,5-diphenyltetrazolium bromide) assay to evaluate their intrinsic cytotoxicity on LoVo/DOX cell line.
as §2, §3, §4

LoVo/DOX cells = assay: Enhancement of doxorubicin cytotoxicity on LoVo/DOX cells (MTT); type: cell-based, human; conditions: 72 h
Method: (§5) To evaluate the enhancement of doxorubicin toxicity in the presence of the tested compounds, the cells, in exponential growth phase, were seeded at 10^4 cells/well and solutions of either compounds or doxorubicin, or a solution of doxorubicin in combination with the compounds, were added to the wells repeated in quadruplicate. […] The MTT working solution was then added and plates were further incubated for 3 h. Following incubation cells and formazan crystals were inspected microscopically. The supernatant was then carefully removed by slow aspiration and the formazan crystals were dissolved in […] of acidified isopropanol solution. The absorbance of the solution was then read on an automated plate reader at a wavelength of 570 nm. The increase in the toxicity of doxorubicin was quantified by the ratio between the growth of the cell sample treated with IC20 of doxorubicin and that of the cell sample treated with IC20 of doxorubicin in combination with the various concentrations of the tested compounds.

K562/DOX cells = assay: Enhancement of doxorubicin cytotoxicity on K562/DOX cells (MTT); type: cell-based, human; conditions: 72 h
Method: as §5

[3] = doxorubicin 0.3 µM (IC20) + compound 3 µM
[4] = doxorubicin 0.3 µM (IC20) + compound 10 µM
[5] = doxorubicin 0.5 µM (IC20) + compound 3 µM
[6] = doxorubicin 0.5 µM (IC20) + compound 10 µM

T5 sequence (O43570 25-354): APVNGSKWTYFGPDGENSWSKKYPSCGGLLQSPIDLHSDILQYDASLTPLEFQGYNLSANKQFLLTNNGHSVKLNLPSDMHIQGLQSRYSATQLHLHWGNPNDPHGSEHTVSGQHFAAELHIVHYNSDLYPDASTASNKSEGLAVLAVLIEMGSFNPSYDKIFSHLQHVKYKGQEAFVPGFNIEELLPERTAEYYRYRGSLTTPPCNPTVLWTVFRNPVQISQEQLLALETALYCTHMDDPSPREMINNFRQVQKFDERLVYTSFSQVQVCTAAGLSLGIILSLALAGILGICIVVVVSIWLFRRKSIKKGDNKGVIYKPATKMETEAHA
T1 sequence (P00915 whole entry): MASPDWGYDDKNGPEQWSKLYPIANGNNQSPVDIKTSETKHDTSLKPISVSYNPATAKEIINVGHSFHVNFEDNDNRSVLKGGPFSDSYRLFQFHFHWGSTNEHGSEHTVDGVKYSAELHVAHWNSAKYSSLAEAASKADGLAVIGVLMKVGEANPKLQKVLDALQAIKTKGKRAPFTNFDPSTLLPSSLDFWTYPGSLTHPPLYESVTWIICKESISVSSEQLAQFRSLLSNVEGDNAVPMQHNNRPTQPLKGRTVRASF
T2 sequence (P08183 whole entry): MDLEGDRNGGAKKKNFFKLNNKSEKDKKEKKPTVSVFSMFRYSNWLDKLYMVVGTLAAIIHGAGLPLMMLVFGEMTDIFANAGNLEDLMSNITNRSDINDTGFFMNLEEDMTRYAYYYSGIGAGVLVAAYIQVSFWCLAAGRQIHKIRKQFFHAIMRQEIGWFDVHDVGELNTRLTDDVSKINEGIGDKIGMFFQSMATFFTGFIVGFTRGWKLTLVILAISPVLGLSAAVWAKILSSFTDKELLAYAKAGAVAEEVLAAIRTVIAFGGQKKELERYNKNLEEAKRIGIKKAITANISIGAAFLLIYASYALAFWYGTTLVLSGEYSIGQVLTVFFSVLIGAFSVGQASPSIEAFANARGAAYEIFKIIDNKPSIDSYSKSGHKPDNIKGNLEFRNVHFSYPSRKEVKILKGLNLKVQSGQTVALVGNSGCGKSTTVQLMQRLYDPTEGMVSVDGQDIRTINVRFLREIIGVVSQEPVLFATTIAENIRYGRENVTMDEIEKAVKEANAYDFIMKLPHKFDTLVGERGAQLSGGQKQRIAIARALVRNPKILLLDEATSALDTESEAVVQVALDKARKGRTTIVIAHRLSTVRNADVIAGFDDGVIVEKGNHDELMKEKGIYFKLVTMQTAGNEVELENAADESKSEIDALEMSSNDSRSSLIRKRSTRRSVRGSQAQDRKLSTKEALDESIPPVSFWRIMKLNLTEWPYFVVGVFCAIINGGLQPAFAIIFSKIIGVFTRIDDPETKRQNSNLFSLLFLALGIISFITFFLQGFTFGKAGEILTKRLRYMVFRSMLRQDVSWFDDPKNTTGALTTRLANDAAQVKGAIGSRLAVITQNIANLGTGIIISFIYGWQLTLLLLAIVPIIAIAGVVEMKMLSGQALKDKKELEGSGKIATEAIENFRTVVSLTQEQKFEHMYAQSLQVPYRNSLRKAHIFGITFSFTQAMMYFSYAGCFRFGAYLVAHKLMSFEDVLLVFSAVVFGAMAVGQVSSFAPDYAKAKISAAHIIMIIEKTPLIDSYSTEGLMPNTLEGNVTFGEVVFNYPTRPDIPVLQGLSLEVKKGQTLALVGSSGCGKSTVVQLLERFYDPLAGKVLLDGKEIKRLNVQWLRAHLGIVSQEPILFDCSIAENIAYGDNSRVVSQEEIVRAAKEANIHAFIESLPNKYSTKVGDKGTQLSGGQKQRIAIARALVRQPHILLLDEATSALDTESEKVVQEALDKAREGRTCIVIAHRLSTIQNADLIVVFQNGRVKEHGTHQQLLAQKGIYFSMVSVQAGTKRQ

| Structure (SMILES) | Ki (hCA I) | FR (fluorescence ratio, Rhd 123 uptake with/without modulator) (P-gp [1]; compound 3 µM) | FR (fluorescence ratio, Rhd 123 uptake with/without modulator) (P-gp [1]; compound 30 µM) | Ki (hCA IX) | Ki (hCA II) | Ki (hCA XII) | FR (fluorescence ratio, Rhd 123 uptake) (P-gp [2]; compound 10 µM) | Cell Growth (%) (LoVo/DOX cells; [3]) | Cell Growth (%) (LoVo/DOX cells; [4]) | Cell Growth (%) (K562/DOX cells; [5]) | Cell Growth (%) (LoVo/DOX cells; doxorubicin 0.3 µM (IC20) + compound 10 µM, listed as verapamil) | Cell Growth (%) (K562/DOX cells; [6]) | FR (fluorescence ratio, Rhd 123 uptake) (P-gp [2]; compound 3 µM) |
| --- | --- | --- | --- | --- | --- | --- | --- | --- | --- | --- | --- | --- | --- |
| COc1cc(/C=C/C(=O)OCCCCCCCN(C)CCOC(=O)COc2ccc3ccc(=O)oc3c2)cc(OC)c1OC [Compound 7, (E)-7-(methyl(2-(2-((2-oxo-2H-chromen-7-yl)oxy)acetoxy)ethyl)amino)heptyl 3-(3,4,5-trimethoxyphenyl)acrylate] | > 10 µM | 2.08 | 4.48 | 0.0297 µM | > 10 µM | 0.0091 µM | 12.60 | 61.0% and 61.0 ± 3.3% | 34.9% and 34.9 ± 8.1% | 78.1 ± 4.9% | – | – | – |
| COc1ccc(CCN(C)CCCC(C#N)(c2ccc(OC)c(OC)c2)C(C)C)cc1OC (stereo not shown) [Ver, verapamil, reference compound] | – | – | – | – | – | – | – | 54.0 ± 0.06% | 51.0 ± 0.09% | 69.0 ± 0.03% | 51.0% | 62.0 ± 0.1% | – |
| COc1cc(C(=O)OCCCCCCCN(C)CCOC(=O)c2ccc(S(N)(=O)=O)cc2)cc(OC)c1OC [Compound 25, 7-(methyl(2-((4-sulfamoylbenzoyl)oxy)ethyl)amino)heptyl 3,4,5-trimethoxybenzoate] | 0.0427 µM | 1.44 | 3.50 | 0.117 µM | 0.0902 µM | 0.008 µM | – | 81.7 ± 2.0% | – | 80.3 ± 5.9% | – | 76.0 ± 3.7% | negligible |
| COc1cc(/C=C/C(=O)OCCCCCN(C)CCCCCOC(=O)c2ccc(S(N)(=O)=O)cc2)cc(OC)c1OC [Compound 18, (E)-5-(methyl(5-((3-(3,4,5-trimethoxyphenyl)acryloyl)oxy)pentyl)amino)pentyl 4-sulfamoyl benzoate] | 0.0626 µM | 1.00 | 4.99 | 0.226 µM | 0.425 µM | 0.0626 µM | – | – | – | – | – | – | – |
| COc1cc(/C=C/C(=O)OCCCCCCN(C)CCCOC(=O)COc2ccc3ccc(=O)oc3c2)cc(OC)c1OC [Compound 5, (E)-6-(methyl(3-(2-((2-oxo-2H-chromen-7-yl)oxy)acetoxy)propyl)amino)hexyl 3-(3,4,5-trimethoxyphenyl)acrylate] | > 10 µM | 3.67 | 5.85 | 0.0267 µM | > 10 µM | 0.0064 µM | 6.30 | 58.0% and 58.0 ± 2.4% | 51.0% and 51.0 ± 1.9% | 51.7% and 51.7 ± 3.0% | – | – | – |
| CN(CCCCCCCOC(=O)c1c2ccccc2cc2ccccc12)CCOC(=O)c1ccc(S(N)(=O)=O)cc1 [Compound 28, 7-(methyl(2-((4-sulfamoylbenzoyl)oxy)ethyl)amino)heptyl anthracene-9-carboxylate] | 0.238 µM | 1.45 | 4.25 | 0.0206 µM | 0.475 µM | 0.0235 µM | – | – | – | – | – | – | – |
| COc1cc(/C=C/C(=O)OCCCN(C)CCCOC(=O)COc2ccc3ccc(=O)oc3c2)cc(OC)c1OC [Compound 1, (E)-3-(methyl(3-(2-((2-oxo-2H-chromen-7-yl)oxy)acetoxy)propyl)amino)propyl 3-(3,4,5-trimethoxyphenyl)acrylate] | > 10 µM | 1.44 | 4.76 | 0.142 µM | > 10 µM | 0.0093 µM | – | – | – | – | – | – | – |
| COc1cc(/C=C/C(=O)OCCCCCCN(C)CCCCOC(=O)COc2ccc3ccc(=O)oc3c2)cc(OC)c1OC [Compound 6, (E)-6-(methyl(4-(2-((2-oxo-2H-chromen-7-yl)oxy)acetoxy)butyl)amino)hexyl 3-(3,4,5-trimethoxyphenyl)acrylate] | > 10 µM | 1.39 | 1.98 | 0.0402 µM | > 10 µM | 0.0364 µM | – | – | – | – | – | – | – |
| COc1cc(/C=C/C(=O)OCCCCCN(C)CCCOC(=O)COc2ccc3ccc(=O)oc3c2)cc(OC)c1OC [Compound 3, (E)-5-(methyl(3-(2-((2-oxo-2H-chromen-7-yl)oxy)acetoxy)propyl)amino)pentyl 3-(3,4,5-trimethoxyphenyl)acrylate] | > 10 µM | 1.00 | 2.58 | 0.0546 µM | > 10 µM | 0.0488 µM | – | – | – | – | – | – | – |
| COc1cc(/C=C/C(=O)OCCCCCCCN(C)CCOC(=O)c2ccc(S(N)(=O)=O)cc2)cc(OC)c1OC [Compound 21, (E)-2-(methyl(7-((3-(3,4,5-trimethoxyphenyl)acryloyl)oxy)heptyl)amino)ethyl 4-sulfamoyl benzoate] | 0.533 µM | 1.30 | 3.70 | 0.0684 µM | 0.0489 µM | 0.0352 µM | – | 82.0 ± 2.7% | 59.0 ± 3.3% | 78.8 ± 10.2% | – | 68.7 ± 3.6% | negligible |
| CN(CCCCCCCOC(=O)c1c2ccccc2cc2ccccc12)CCOC(=O)COc1ccc2ccc(=O)oc2c1 [Compound 14, 7-(methyl(2-(2-((2-oxo-2H-chromen-7-yl)oxy)acetoxy)ethyl)amino)heptyl anthracene-9-carboxylate] | > 10 µM | 1.25 | 4.22 | 0.126 µM | > 10 µM | 0.0429 µM | – | – | – | – | – | – | – |
